Two substances from US12433935B2, “Producing method of mesenchymal stem cell for prevention or treatment of brain neuronal disease including ghrelin treatment and use thereof” (Samsung Life Public Welfare Foundation, priority 2020, dated 2025) can be followed below.

One assay has as its system mouse AgRP gene. As to the kind of experiment: AgRP expression in mHYPOE-N46 mouse hypothalamus cell line treated with ghrelin, real-time PCR. It counts as cell-based. As to conditions: mHYPOE-N46 cells, 0, 10 pM, 1 nM, 100 nM, 6 or 12 hours, primers mAgRP1 and mAgRP2 (FIG. 3A-3D). Here is the method:
An experiment was conducted to identify the change in AgRP expression level when the mouse hypothalamus cell line was directly treated with the mouse/rat recombinant ghrelin. Specifically, mHYPOE-N46 mouse hypothalamus cell line was thawed in a 175T flask and stabilized for 3 days, and then was incubated for two days in DMEM high glucose medium (Gibco, 11965-092) supplemented with 10% FBS (Biowest, 51480) and penicillin-streptomycin (Gibco, 15140122). Under 10% FBS conditions, the cells are seeded, at 0.8×10^6, in a 6 well plate and incubated for 1 day. After the incubation, the cells were treated with mouse/rat recombinant ghrelin (Phoenix Pharmaneuticals, 031-31) at concentrations of 0, 10 pM, 1 nM, and 100 nM, respectively, in FBS-free conditions. Cells were collected after 6 and 12 hours, respectively. The collected cells were treated with Trizol. mRNA was extracted therefrom. Then, real-time PCR analysis thereof was performed using two mouse AgRP primer pairs. […] After direct treatment of the cells with ghrelin for 6 or 12 hours, the expression of mAgRP was analyzed. In addition, the results of mouse AgRP expression analysis according to ghrelin treatment time using primer mAgRP2 are shown in FIG. 3C and FIG. 3D.
(Real-time PCR tracks product formation cycle by cycle.)

Another assay has as its system AgRP gene. As to the kind of experiment: AgRP expression in mesenchymal stem cells (WJ-MSC) treated with ghrelin, real-time PCR. The format is cell-based, human. The protocol: An experiment was conducted to identify the effect on the expression of AgRP (Agouti related peptide) known as a therapeutic agent for brain neuronal disease such as Alzheimer's disease in mesenchymal stem cells when the mesenchymal stem cells were directly treated with ghrelin. WJ-MSCs were thawed in a 175T flask and stabilized for 3 days, and then cultured for 2 days in MEM alpha medium (Gibco, 12571063) to which 10% FBS (Biowest, S1480) and 5 μg/ml gentamicin were added. Thereafter, the WJ-MSCs were seeded, at 0.8×10^6, on a 6-well plate under 10% FBS conditions and incubated for 1 day. After the incubation, the WJ-MSCs were treated with human recombinant ghrelin (Phoenix Pharmaneuticals, 031-30) at concentrations of 0, 10 pM, 1 nM, and 100 nM, respectively, under FBS-free conditions. Cells were collected after 6 and 12 hours, respectively. The collected WJ-MSC was treated with Trizol, and mRNA was extracted therefrom. Then, real-time PCR analysis thereof was performed using human AgRP Primer. The results of treatment of the cells with human recombinant ghrelin at various concentrations for 6 hours are shown in FIG. 2A. The results of treatment of the cells with human recombinant ghrelin at various concentrations for 12 hours are shown in FIG. 2B.

No end group written: not given here.

On to “mouse ghrelin: mouse/rat recombinant ghrelin (Phoenix Pharmaneuticals, 031-31) (GSSFLSPEHQKAQQRKESKKPPAKLQPR; ends and bridges not checked; UniProt Q9EQX0 24-51, looked up)”, for which the “expression of mouse AgRP gene” value in the assay on mouse AgRP gene was “increased according to the concentration of ghrelin”. In the case of “human recombinant ghrelin: human recombinant ghrelin (Phoenix Pharmaneuticals, 031-30); hormone that increases appetite (GSSFLSPEHQRVQQRKESKKPPAKLQPR; ends and bridges not checked; UniProt Q9UBU3 24-51, looked up)”, the “expression of AgRP gene” value with AgRP gene (WJ-MSC, 0, 10 pM, 1 nM, 100 nM, FBS-free, 6 hours and 12 hours (FIG. 2A, 2B)) was “increased based on the treatment concentration”. Besides, in the assay with AgRP gene (WJ-MSC, 100 nM concentration, 6 and 12 hours), the “expression of AgRP” value is listed as “significantly increased”.
